Source: US12187723B2 (BRISTOL-MYERS SQUIBB COMPANY, priority 2019, dated 2025)

Target: T1, human TLR7 (Homo sapiens, UniProt Q9NYK1)
T1 construct: host or cells: HEK-Blue cells
T1 sequence (Q9NYK1 27-1049): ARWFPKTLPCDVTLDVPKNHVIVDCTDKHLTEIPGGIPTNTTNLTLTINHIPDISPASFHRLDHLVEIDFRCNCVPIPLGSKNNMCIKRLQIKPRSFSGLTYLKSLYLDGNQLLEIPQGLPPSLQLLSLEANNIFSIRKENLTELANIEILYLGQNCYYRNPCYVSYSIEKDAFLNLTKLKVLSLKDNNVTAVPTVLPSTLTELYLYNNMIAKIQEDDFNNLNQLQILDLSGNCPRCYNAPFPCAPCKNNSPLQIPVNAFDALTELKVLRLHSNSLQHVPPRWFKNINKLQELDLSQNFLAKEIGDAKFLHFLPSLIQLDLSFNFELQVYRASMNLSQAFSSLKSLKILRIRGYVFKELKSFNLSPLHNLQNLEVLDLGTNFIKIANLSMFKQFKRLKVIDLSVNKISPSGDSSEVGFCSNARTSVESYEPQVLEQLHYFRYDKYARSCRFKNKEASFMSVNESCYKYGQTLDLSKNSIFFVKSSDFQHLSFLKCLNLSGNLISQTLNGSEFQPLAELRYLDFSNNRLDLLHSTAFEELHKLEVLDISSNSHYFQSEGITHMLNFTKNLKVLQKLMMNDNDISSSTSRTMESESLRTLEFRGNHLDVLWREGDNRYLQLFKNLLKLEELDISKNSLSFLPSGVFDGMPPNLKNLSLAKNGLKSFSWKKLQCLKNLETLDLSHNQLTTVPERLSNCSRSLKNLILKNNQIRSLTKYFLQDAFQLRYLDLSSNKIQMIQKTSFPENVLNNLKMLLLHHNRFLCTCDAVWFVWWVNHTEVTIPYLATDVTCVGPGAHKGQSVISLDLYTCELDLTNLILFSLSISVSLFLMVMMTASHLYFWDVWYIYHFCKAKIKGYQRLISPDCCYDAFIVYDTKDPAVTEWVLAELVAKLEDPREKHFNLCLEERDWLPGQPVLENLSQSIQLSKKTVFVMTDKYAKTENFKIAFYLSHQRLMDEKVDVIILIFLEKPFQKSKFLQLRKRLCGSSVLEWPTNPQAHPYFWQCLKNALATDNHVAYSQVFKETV
Assay: TLR7 inhibition reporter assay (HEK-Blue SEAP)
Format: cell-based
Settings: HEK-Blue cells overexpressing human TLR7, gardiquimod 7.5 μM, 22 hour incubation
Procedure: TLR7/8/9 Inhibition Reporter Assays
Briefly, cells are seeded into Greiner 384 well plates (15000 cells per well for TLR7, 20,000 for TLR8 and 25,000 for TLR9) and then treated with test compounds in DMSO to yield a final dose response concentration range of 0.05 nM-50 μM. […] After a 22 hour incubation at 37° C., 5% CO2, SEAP levels are determined with the addition of HEK-Blue™ Detection reagent (Invivogen), a cell culture medium that allows for detection of SEAP, according to manufacturer's specifications. The percent inhibition is determined as the % reduction in the HEK-Blue signal present in wells treated with agonist plus DMSO alone compared to wells treated with a known inhibitor.

Row | Structure (SMILES) | IC50
1 | CCCN1CCC(n2c(=O)[nH]c3cc(-c4cc(C)c5ncnn5c4)c(C)cc32)CC1 [Example 7, 6-methyl-5-(8-methyl-[1,2,4]triazolo[1,5-a]pyridin-6-yl)-1-(1-propylpiperidin-4-yl)-1,3-dihydro-2H-benzo[d]imidazol-2-one] | 41.8 nM
2 | COc1cc(-c2cc3[nH]c(=O)n(C4CCN(CC5CC5)CC4)c3cc2C(C)C)cn2ncnc12 [Example 161, 1-(1-(cyclopropylmethyl)piperidin-4-yl)-6-isopropyl-5-(8-methoxy-[1,2,4]triazolo[1,5-a]pyridin-6-yl)-1,3-dihydro-2H-benzo[d]imidazol-2-one] | 7.28 nM
3 | CCCN1CCC[C@H](n2c(=O)[nH]c3cc(-c4cc(OC)c5ncnn5c4)c(C(C)C)cc32)C1 [Example 121, (S)-6-isopropyl-5-(8-methoxy-[1,2,4]triazolo[1,5-a]pyridin-6-yl)-1-(1-propylpiperidin-3-yl)-1,3-dihydro-2H-benzo[d]imidazol-2-one] | 28.6 nM
4 | Cc1cc(-c2cc(C)c3ncnn3c2)cc2[nH]c(=O)n(C3CCN(C)CC3)c12 [Example 106, 7-methyl-5-(8-methyl-[1,2,4]triazolo[1,5-a]pyridin-6-yl)-1-(1-methylpiperidin-4-yl)-1,3-dihydro-2H-benzo[d]imidazol-2-one] | 29.7 nM
5 | Cc1cc(-c2ccc3c(c2)[nH]c(=O)n3C2CCN(C)CC2)cn2ncnc12 [Example 4, 5-(8-methyl-[1,2,4]triazolo[1,5-a]pyridin-6-yl)-1-(1-methylpiperidin-4-yl)-1,3-dihydro-2H-benzo[d]imidazol-2-one] | 863 nM
6 | COc1cc(-c2cc3[nH]c(=O)n(C4CCN(C5CCOCC5)CC4)c3cc2C(C)C)cn2ncnc12 [Example 158, 6-isopropyl-5-(8-methoxy-[1,2,4]triazolo[1,5-a]pyridin-6-yl)-1-(1-(tetrahydro-2H-pyran-4-yl)piperidin-4-yl)-1,3-dihydro-2H-benzo[d]imidazol-2-one] | 11.2 nM
7 | CCCN1CCC[C@@H](n2c(=O)[nH]c3cc(-c4cn5ncnc5c(C)c4C)c(C(C)C)cc32)C1 [Example 150, (R)-5-(7,8-dimethyl-[1,2,4]triazolo[1,5-a]pyridin-6-yl)-6-isopropyl-1-(1-propylpiperidin-3-yl)-1,3-dihydro-2H-benzo[d]imidazol-2-one] | 5.52 nM
8 | COc1cc(-c2cc3[nH]c(=O)n([C@@H]4CCCN(CC5CCOCC5)C4)c3cc2C(C)C)cn2ncnc12 [Example 139, (R)-6-isopropyl-5-(8-methoxy-[1,2,4]triazolo[1,5-a]pyridin-6-yl)-1-(1-((tetrahydro-2H-pyran-4-yl)methyl)piperidin-3-yl)-1,3-dihydro-2H-benzo[d]imidazol-2-one] | 0.76 nM
9 | Cc1cc(-c2cc(C)c3ncnn3c2)cc2[nH]c(=O)n(C3CCN(CC(=O)N(C)C)CC3)c12 [Example 109, N,N-dimethyl-2-(4-(7-methyl-5-(8-methyl-[1,2,4]triazolo[1,5-a]pyridin-6-yl)-2-oxo-2,3-dihydro-1H-benzo[d]imidazol-1-yl)piperidin-1-yl)acetamide] | 74.1 nM
10 | CCN1CCC[C@@H](n2c(=O)[nH]c3cc(-c4cc(OC)c5ncnn5c4)c(C(C)C)cc32)C1 [Example 138, (R)-1-(1-ethylpiperidin-3-yl)-6-isopropyl-5-(8-methoxy-[1,2,4]triazolo[1,5-a]pyridin-6-yl)-1,3-dihydro-2H-benzo[d]imidazol-2-one] | 2.73 nM
11 | CCN1CCC[C@@H](n2c(=O)[nH]c3cc(-c4cc(OC)c5ncnn5c4)c(C(F)(F)F)cc32)C1 [Example 110, (R)-1-(1-ethylpiperidin-3-yl)-5-(8-methoxy-[1,2,4]triazolo[1,5-a]pyridin-6-yl)-6-(trifluoromethyl)-1,3-dihydro-2H-benzo[d]imidazol-2-one] | 16.8 nM
12 | COc1cc(-c2cc3[nH]c(=O)n([C@H]4CCCN(CC5CCC5)C4)c3cc2C(C)C)cn2ncnc12 [Example 133, (S)-1-(1-(cyclobutylmethyl)piperidin-3-yl)-6-isopropyl-5-(8-methoxy-[1,2,4]triazolo[1,5-a]pyridin-6-yl)-1,3-dihydro-2H-benzo[d]imidazol-2-one] | 17.3 nM
13 | COc1cc(-c2cc3[nH]c(=O)n([C@@H]4CCCN(CC5CCOCC5)C4)c3cc2C(F)(F)F)cn2ncnc12 [Example 112, (R)-5-(8-methoxy-[1,2,4]triazolo[1,5-a]pyridin-6-yl)-1-(1-((tetrahydro-2H-pyran-4-yl)methyl)piperidin-3-yl)-6-(trifluoromethyl)-1,3-dihydro-2H-benzo[d]imidazol-2-one] | 30.8 nM
14 | CCC(CC)CN1CCC[C@H](n2c(=O)[nH]c3cc(-c4cc(OC)c5ncnn5c4)c(C(C)C)cc32)C1 [Example 130, (S)-1-(1-(2-ethylbutyl)piperidin-3-yl)-6-isopropyl-5-(8-methoxy-[1,2,4]triazolo[1,5-a]pyridin-6-yl)-1,3-dihydro-2H-benzo[d]imidazol-2-one] | 31.1 nM
15 | COc1cc(-c2cc3[nH]c(=O)n([C@@H]4CCCN(CC(C)C)C4)c3cc2C(C)C)cn2ncnc12 [Example 141, (R)-1-(1-isobutylpiperidin-3-yl)-6-isopropyl-5-(8-methoxy-[1,2,4]triazolo[1,5-a]pyridin-6-yl)-1,3-dihydro-2H-benzo[d]imidazol-2-one] | 0.12 nM
16 | COCCN1CCC[C@@H](n2c(=O)[nH]c3cc(-c4cc(OC)c5ncnn5c4)c(C)cc32)C1 [Example 98, (R)-5-(8-methoxy-[1,2,4]triazolo[1,5-a]pyridin-6-yl)-1-(1-(2-methoxyethyl)piperidin-3-yl)-6-methyl-1,3-dihydro-2H-benzo[d]imidazol-2-one] | 20.5 nM
17 | Cc1c(-c2cc3[nH]c(=O)n([C@@H]4CCCN(C5COC5)C4)c3cc2C(C)C)cn2ncnc2c1C [Example 146, (R)-5-(7,8-dimethyl-[1,2,4]triazolo[1,5-a]pyridin-6-yl)-6-isopropyl-1-(1-(oxetan-3-yl)piperidin-3-yl)-1,3-dihydro-2H-benzo[d]imidazol-2-one] | 182 nM
18 | COc1cc(-c2cc3[nH]c(=O)n(C4CCN(C(C)C)CC4)c3cc2C(C)C)cn2ncnc12 [Example 163, 6-isopropyl-1-(1-isopropylpiperidin-4-yl)-5-(8-methoxy-[1,2,4]triazolo[1,5-a]pyridin-6-yl)-1,3-dihydro-2H-benzo[d]imidazol-2-one] | 7.49 nM
19 | COc1cc(-c2cc3[nH]c(=O)n([C@@H]4CCCN(C)C4)c3cc2C(F)(F)F)cn2ncnc12 [Example 114, (R)-5-(8-methoxy-[1,2,4]triazolo[1,5-a]pyridin-6-yl)-1-(1-methylpiperidin-3-yl)-6-(trifluoromethyl)-1,3-dihydro-2H-benzo[d]imidazol-2-one] | 2.87 nM
20 | COc1cc(-c2cc3[nH]c(=O)n(C4CCN(CC5CCOCC5)CC4)c3cc2C(C)C)cn2ncnc12 [Example 159, 6-isopropyl-5-(8-methoxy-[1,2,4]triazolo[1,5-a]pyridin-6-yl)-1-(1-((tetrahydro-2H-pyran-4-yl)methyl)piperidin-4-yl)-1,3-dihydro-2H-benzo[d]imidazol-2-one] | 7.23 nM
21 | CCN1CCC(n2c(=O)[nH]c3cc(-c4cc(C)c5ncnn5c4)c(C)cc32)CC1 [Example 6, 1-(1-ethylpiperidin-4-yl)-6-methyl-5-(8-methyl-[1,2,4]triazolo[1,5-a]pyridin-6-yl)-1,3-dihydro-2H-benzo[d]imidazol-2-one] | 38.7 nM
22 | Cc1cc(-c2cc(C)c3ncnn3c2)cc2[nH]c(=O)n(C3CCN(C(C)C)CC3)c12 [Example 107, 1-(1-isopropylpiperidin-4-yl)-7-methyl-5-(8-methyl-[1,2,4]triazolo[1,5-a]pyridin-6-yl)-1,3-dihydro-2H-benzo[d]imidazol-2-one] | 32.9 nM
23 | CCCN1CCC[C@@H](n2c(=O)[nH]c3cc(-c4cc(OC)c5ncnn5c4)c(C(C)C)cc32)C1 [Example 134, (R)-6-isopropyl-5-(8-methoxy-[1,2,4]triazolo[1,5-a]pyridin-6-yl)-1-(1-propylpiperidin-3-yl)-1,3-dihydro-2H-benzo[d]imidazol-2-one] | 1.98 nM
